PubChem BioAssay (NCI)
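In this assay, cells in 96-well plates receive the compound at five concentrations for 48 hours. Endpoints are linearly interpolated between the surrounding concentrations. Abbreviation: GI50, concentration required for 50% inhibition of growth. TGI: total growth inhibition.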

Columns and labels:
Test in all cases: NCI anticancer screen, dose series, 48 h
HCT-15 colon = test system: HCT-15 colon
HCC-2998 colon = test system: HCC-2998 colon
SF-268 CNS = test system: SF-268 CNS
UACC-257 melanoma = test system: UACC-257 melanoma
LOX IMVI melanoma = test system: LOX IMVI melanoma
K-562 leukemia = test system: K-562 leukemia
SK-OV-3 ovarian = test system: SK-OV-3 ovarian
SW-620 colon = test system: SW-620 colon
UACC-62 melanoma = test system: UACC-62 melanoma
PC-3 prostate = test system: PC-3 prostate

Row | SMILES | TGI (HCT-15 colon) [µM] | TGI (HCC-2998 colon) [µM] | TGI (SF-268 CNS) [µM] | TGI (UACC-257 melanoma) [µM] | TGI (LOX IMVI melanoma) [µM] | TGI (K-562 leukemia) [µM] | TGI (SK-OV-3 ovarian) [µM] | TGI (SW-620 colon) [µM] | TGI (UACC-62 melanoma) [µM] | GI50 (HCC-2998 colon) [µM] | GI50 (SF-268 CNS) [µM] | GI50 (LOX IMVI melanoma) [µM] | GI50 (K-562 leukemia) [µM] | GI50 (SW-620 colon) [µM] | GI50 (UACC-62 melanoma) [µM] | GI50 (HCT-15 colon) [µM] | GI50 (UACC-257 melanoma) [µM] | GI50 (SK-OV-3 ovarian) [µM] | TGI (PC-3 prostate) [µM] | GI50 (PC-3 prostate) [µM]
1 | COc1cc(/C=C(\C#N)C(=O)c2ccccc2)cc(OC)c1OC | > 100 | > 100 | > 100 | > 100 | > 100 | > 100 | > 100 | > 100 | > 100 |  |  |  |  |  |  |  |  |  |  | 
2 | O=C(NC(=Nc1ccccc1)SCCSC(=Nc1ccccc1)NC(=O)c1ccccc1)c1ccccc1 | > 100 | > 100 | > 100 | > 100 | > 100 | > 100 |  | > 100 | > 100 |  |  |  |  |  |  |  |  |  |  | 
3 | Cc1nc2ccccc2c(=O)n1/N=C(\N=Nc1ccc(Cl)cc1)c1ccc(N(C)C)cc1 | > 100 |  | > 100 |  | > 100 | > 100 | > 100 | > 100 | > 100 |  |  |  |  |  |  |  |  |  |  | 
4 | O=C1N(c2ccccc2)C2(O)C(=O)c3ccccc3C2(O)N1c1ccccc1 (stereo not drawn) | > 100 | > 100 | > 100 | > 100 | > 100 | > 100 | > 100 | > 100 | > 100 |  |  |  |  |  |  |  |  |  |  | 
5 | N#CC1(C2CC(=O)N(c3ccccc3)C2=O)CCCCC1=O (stereo not drawn) | > 100 | > 100 | > 100 |  | > 100 | > 100 | > 100 | > 100 | > 100 |  |  |  |  |  |  |  |  |  |  | 
6 | CC(=O)NNc1nc(C)c(C(=O)NNC(=O)C(=O)Nc2ccc(C)cc2[N+](=O)[O-])s1 | > 100 | > 100 | > 100 | > 100 | > 100 | > 100 | > 100 | > 100 | > 100 |  |  |  |  |  |  |  |  |  |  | 
7 | Cc1cc2c(=O)cc(-c3ccncc3)oc2c(C(N)=O)c1C | > 100 | > 100 | > 100 | > 100 | > 100 |  | > 100 | > 100 | > 100 |  |  |  |  |  |  |  |  |  |  | 
8 | Cc1cc(Br)ccc1N=NC1C(=O)ON=C1c1ccccc1 (stereo not drawn) |  | 76.4 | > 100 | > 100 | > 100 | > 100 | > 100 | > 100 | > 100 |  |  |  |  |  |  |  |  |  |  | 
9 | CC(=O)Nc1ccc(/C=C/C(=O)c2sc(-n3nc(-c4ccccc4)cc3-c3ccccc3)nc2C)cc1 |  | > 100 | > 100 | > 100 | > 100 | > 100 |  | > 100 | > 100 | > 100 | > 100 | > 100 | > 100 | > 100 | > 100 |  |  |  |  | 
10 | COc1cc(Br)c(C2OCCCO2)cc1OCc1ccccc1 | > 100 |  | > 100 |  | > 100 | > 100 | > 100 | > 100 | > 100 |  |  |  |  |  |  |  |  |  |  | 
11 | CC1CC(=O)C(CC(=O)O)[C@H]1C(C(=O)C(=O)Nc1cc(Cl)ccc1Cl)[N+](=O)[O-] (stereo partly drawn) | > 100 | > 100 | > 100 |  | > 100 | > 100 | > 100 | > 100 | > 100 |  |  |  |  |  |  |  |  |  |  | 
12 | CCC[CH2][Sn]1([CH2]CCC)[O]C(=O)c2cccnc2[S]1 | 4.98 | 6.15 |  | 6.97 | 3.6 | 5.48 | 31.4 | 4.31 | 5.53 | 2.39 |  | 1.76 | 1.65 | 1.88 | 1.87 | 2.21 | 2.64 | 16.9 |  | 
13 | COc1ccc(Cc2c3cc(OC)c(OC)cc3cc[n+]2C)cc1 | > 52.8 | > 32.8 | > 27.5 | > 58.4 | > 24.7 | > 100 | > 47.3 | > 100 | > 50 |  |  |  |  |  |  |  |  |  |  | 
14 | COc1cc(CC2c3cc(OC)c(OC)cc3CCN2C)c(C(=O)O)cc1OC (stereo not drawn) |  | > 100 | > 100 | > 100 | > 100 | > 100 | > 100 | > 100 | > 100 |  |  |  |  |  |  |  |  |  |  | 
15 | CCCCP1(=O)C=CC(Cl)=C(C)C1 (stereo not drawn) | > 100 | > 100 | > 100 | > 100 |  | > 100 |  | > 100 | > 100 |  |  |  |  |  |  |  |  |  |  | 
16 | CC1(C)OC2OC(/C=C/[N+](=O)[O-])C3OC(C)(C)OC3C2O1 (stereo not drawn) | 5.43 | 31.1 | 39.5 | 20.7 | 22.1 | 27.5 | 34.8 | 9.46 | 28.6 |  |  |  |  |  |  |  |  |  |  | 
17 | C=CC(C)(C)[C@@]12CC3C(=O)N[C@@H](Cc4ccccc4)C(=O)N3[C@@H]1N(C(C)=O)c1ccccc12 (stereo partly drawn) | > 100 |  |  | > 100 | > 100 | > 100 | > 100 | > 100 | > 100 |  |  |  |  |  |  |  |  |  |  | 

Row | SMILES | TGI (HCT-15 colon) [µM] | TGI (HCC-2998 colon) [µM] | TGI (SF-268 CNS) [µM] | TGI (UACC-257 melanoma) [µM] | TGI (LOX IMVI melanoma) [µM] | TGI (K-562 leukemia) [µM] | TGI (SK-OV-3 ovarian) [µM] | TGI (SW-620 colon) [µM] | TGI (UACC-62 melanoma) [µM] | GI50 (HCC-2998 colon) [µM] | GI50 (SF-268 CNS) [µM] | GI50 (LOX IMVI melanoma) [µM] | GI50 (K-562 leukemia) [µM] | GI50 (SW-620 colon) [µM] | GI50 (UACC-62 melanoma) [µM] | GI50 (HCT-15 colon) [µM] | GI50 (UACC-257 melanoma) [µM] | GI50 (SK-OV-3 ovarian) [µM] | TGI (PC-3 prostate) [µM] | GI50 (PC-3 prostate) [µM]
18 | c1c[nH]c(CN2CCN(Cc3ncc[nH]3)CC2)n1 | > 100 |  | > 100 | > 100 | > 100 |  | > 100 | > 100 | > 100 |  |  |  |  |  |  |  |  |  | > 100 | 
19 | COC(=O)N1C=Cc2c(c(C)c3c([nH]c4ccccc43)c2C)C1C (stereo not drawn) | 26.4 | 32.1 | 44.6 | 35 | 33.7 | 37.7 | 57.3 | 38.9 | 34.9 |  |  |  |  |  |  |  |  |  |  | 
20 | Cc1c(Cl)ccc2[s+]snc12 | > 100 | > 100 | 62.8 | 89.7 | 49.9 | 73.7 | > 100 | 52.2 | 45.2 |  |  |  |  |  |  |  |  |  |  | 
21 | C/C(=N\NC(N)=S)c1ccc(Oc2ccccc2)cc1 | 22.5 | 28.7 |  |  | 34.5 | 21.5 | 36.3 | 53.9 | 28.8 |  |  |  |  |  |  |  |  |  |  | 
22 | O=C1C(=C2C(=O)c3ccccc3[N+]2=O)N([O-])c2ccccc21 |  |  | 88.5 |  | 29.8 | 50.1 | > 100 | 47.5 |  |  |  |  |  |  |  |  |  |  |  | 
23 | O=c1ccn([C@@H]2C[C@H](CO)CS(=O)C2)c(=O)[nH]1 (stereo partly drawn) | > 100 | > 100 | > 100 | > 100 | > 100 | > 100 | > 100 | > 100 | > 100 |  |  |  |  |  |  |  |  |  |  | 
24 | CCn1c(O)c(C(=O)Nc2cccs2)c(=O)n(CC)c1=S | 41.7 |  | 44.4 | 56 | 33.3 | 53.6 | 77.9 | 56.2 | 29.5 |  |  |  |  |  |  |  |  |  |  | 
25 | CCCCCCCCCCCCCCCCCCCCCCC(=O)N[C@H]1CCc2cc(OC)c(OC)c(OC)c2-c2ccc(SC)c(=O)cc21 | 71 | 65.9 | > 100 | > 100 |  | > 100 | 53.6 | > 100 | > 100 |  |  |  |  |  |  |  |  |  |  | 
26 | COc1ccc2c(c1)c(-c1nc(-c3cn(C)c4ncccc34)cs1)cn2CCCCN1CCCCC1 | 2.8 |  |  |  |  |  | 3.15 | 2.99 |  |  |  |  |  | 1.62 |  | 1.45 |  | 1.71 | 3 | 1.61
27 | C[C@H](O)CCC(=O)c1ccoc1 | > 100 | > 100 | > 100 | > 100 | > 100 | > 100 | > 100 | > 100 | > 100 |  |  |  |  |  |  |  |  |  |  | 
28 | C=C(CN1CCc2ccccc2C1)c1ccc(C(=O)Nc2cccc(N)c2)cc1 | 69.8 | 31.9 | 45.9 | 29.7 |  | 30 | 73.5 | 52.1 | 33.3 | 17.1 | 19 |  | 7.53 | 23 | 17.1 | 27.4 | 14.8 | 29.5 | > 100 | 21.9
29 | O=C(CC1(O)C(=O)Nc2ccc(Br)cc21)c1cccc([N+](=O)[O-])c1 (stereo not drawn) | > 100 | > 100 | > 100 | 78.6 | > 100 | > 100 | > 100 | > 100 |  |  |  |  |  |  |  |  |  |  |  | 
30 | CCOc1ccc(-c2nc3ccc(-c4nc5ccc(N6CCN(C)CC6)cc5[nH]4)cc3[nH]2)cc1OCC | > 100 |  | 6.9 | 4.76 |  | 9.01 | 9.41 | 2.89 | 2.58 |  | 1.85 |  | 0.778 | 0.796 | 0.643 | 15 | 1.33 | 2.49 | 10.4 | 1.42
31 | C=CN(C(=O)N1CCN(c2cc3c(cc2F)c(=O)c(C(=O)O)cn3C2CC2)CC1)c1nc(-c2ccc(C)cc2)cs1 | > 100 | > 100 | > 100 | 7.44 |  | > 100 |  | > 100 |  | 3.85 | 4.02 |  | 1.96 | 4.5 |  | 2.96 | 2.81 |  | 6.52 | 0.376
32 | O=C(c1ccccc1)N1CCc2c([nH]c3ccccc23)C1 | > 100 | > 100 |  | 95 | > 100 | > 100 | > 100 | > 100 | > 100 |  |  |  |  |  |  |  |  |  |  | 
33 | CCc1cccc(CC)c1NC1=CC(=O)C(=O)c2ccccc21 | 57.7 | 28.8 | 72.5 | 28.6 | 29.3 | > 100 | 89.5 | 31.7 | 30.1 |  |  |  |  |  |  |  |  |  |  | 
